From patent publication US4311694A, “Amorphous coprecipitates of 4-(monoalkylamino) benzoic acid and derivatives and certain water-soluble materials” (priority 1979, dated 1982)

Legend:
physchem = type: physicochemical; settings: water, drug alone, read-out: soluble in water
[1] = Comparative water solubility of precipitates (Example 4); type: physicochemical; settings: 1 mg./ml. of drug

For `CCCCCCCCCCCCCCCCNc1ccc(C(=O)[O-])cc1.[Na+]`, the solubility (physchem) was 1 µg/mL, the “% p-Hexadecylaminobenzoic acid Sodium Salt in Solution, After 1 minute” value ([1]; 1 minute) was 4% and the “% p-Hexadecylaminobenzoic acid Sodium Salt in Solution, After 30 minutes” value ([1]; 30 minutes) was 2%.
